We go through one compound from ChEMBL document CHEMBL5236660, “Design, synthesis, and biological evaluation of quinoxalinone derivatives as potent BRD4 inhibitors” (Bioorg Med Chem, 2023).

In data set [1] the test system is HepG2. The data set is described as follows: Induction of cell cycle arrest in human HepG2 cells assessed as accumulation at G0/G1 phase at 5 uM incubated for 24 hrs by flow cytometry (Rvb= 46.5%). It is filed as functional. In general terms: A flow cytometer gives signals particle by particle.
Data set [2] has as its system HepG2. Description: Induction of apoptosis in human HepG2 cells assessed as viable cells at 0.625 uM incubated for 24 hrs by Annexin-V/PI staining based flow cytometry (Rvb=94.0%). The data set is classed as functional. Particulars: read-out: Activity.
Data set [3] relates to HepG2. The data set is described as follows: Induction of apoptosis in human HepG2 cells assessed as necrotic cells at 2.5 uM incubated for 24 hrs by Annexin-V/PI staining based flow cytometry (Rvb=0.85%). The data set is classed as functional.
The subject of data set [4] is HepG2. The data set is described as follows: Induction of apoptosis in human HepG2 cells assessed as early apoptotic cells at 5 uM incubated for 24 hrs by Annexin-V/PI staining based flow cytometry (Rvb=4.48%). It is filed as functional.
A further data set relates to MCF7. The data set is described as follows: Antiproliferative activity against human MCF7 cells assessed as reduction in cell viability incubated for 72 hrs by MTT assay. The data set is classed as functional, cell-based. Particulars: MCF7, 72 h. On the technique in general: Tetrazolium dyes change colour on reduction, which living cells bring about.
Data set [5] deals with HepG2. The data set is described as follows: Antimigratory activity against human HepG2 cells assessed as decrease in MMP-9 expression at 0.625 to 2.5 uM incubated 24 hrs by Western blot analysis. It is filed as functional, cell-based. The settings on record: dose 0.625-2.5 µM.
For another data set, the system named is HT-29. The data set is described as follows: Antiproliferative activity against human HT-29 cells assessed as reduction in cell viability incubated for 72 hrs by MTT assay. The data set is classed as functional, cell-based. The settings on record: HT-29, 72 h.
Data set [6] has as its system HepG2. Description: Induction of apoptosis in human HepG2 cells assessed as early apoptotic cells at 0.625 uM incubated for 24 hrs by Annexin-V/PI staining based flow cytometry (Rvb=4.48%). It is filed as functional.
Data set [7] relates to HepG2. Description: Induction of apoptosis in human HepG2 cells assessed as increase in cleaved caspase-3 level at 0.625 to 2.5 uM incubated for 24 hrs by Western blot analysis. It is filed as functional, cell-based. Particulars: dose 0.625-2.5 µM.
Data set [8] concerns HepG2. The data set is described as follows: Induction of apoptosis in human HepG2 cells assessed as late apoptotic cells at 0.625 uM incubated for 24 hrs by Annexin-V/PI staining based flow cytometry (Rvb=0.66%). The data set is classed as functional.
A short description of data set [9]: Cytotoxicity against human GES1 cells assessed as reduction in cell viability incubated for 72 hrs by MTT assay. It is filed as toxicity, cell-based.

By IC50 is commonly meant the concentration that gives 50% inhibition. In the case of `CC(=O)Nc1ccc(Oc2ccc(F)cc2F)c(-c2ccc3[nH]c(=O)c(C)nc3c2)c1`, the Activity is 54.9% with HepG2 [1]; 0.9% in the data set on HepG2 [3]; 10.4% in the data set on HepG2 [4]; “Dose-Dependent Effect” in the data set with HepG2 [5]; 5.3% in the data set with HepG2 [6]; “Dose-Dependent Effect” in the data set on HepG2 [7]. In the data set on HepG2 [8], the Activity worked out at 0.96%. In addition, in the data set with HepG2 [2], the viability at 0.625 µM came out at 92.9%. In addition, the values for the IC50 with MCF7 and in the data set with HT-29 were 22.1 µM and > 50 µM, respectively. Also, the half-inhibitory concentration (IC50) at 72 h in data set [9] turned out to be 57.2 µM.
